In patent US10131652B2, “Pyrimidinyloxy benzene derivatives as herbicides” (E. I. DU PONT DE NEMOURS AND COMPANY, priority 2014, dated 2018):

Key:
Format in all cases: in vivo
[1] = test system: chickweed (common chickweed, Stellaria media); experiment: Test D postemergence plant response; conditions: for Chickweed plant response rating / pest or weed control at 16 g/ha / pest or weed control at 31 g/ha: scale 0 to 100 (0 no effect, 100 complete control); for Plant response rating, Chickweed / pest or weed control at 62 g/ha / pest or weed control at 125 g/ha: scale 0 to 100, 0 no effect, 100 complete control; for pest or weed control at 16 g/ha / pest or weed control at 31 g/ha / pest or weed control at 62 g/ha / pest or weed control at 125 g/ha: Stellaria media, post-emergence; for pest or weed control at 16 g/ha / pest or weed control at 31 g/ha: read-out: Chickweed plant response rating; for pest or weed control at 62 g/ha / pest or weed control at 125 g/ha: read-out: Plant response rating, Chickweed
Outline: (§1)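 Scores reflect visual plant response relative to untreated controls on a 0 to 100 scale, where 100 means complete control. Treatment was postemergence on 2–18 cm plants in peat-based potting medium, with greenhouse assessment 13–15 days later.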

wild oat (Avena fatua) = experiment: Test D postemergence plant response; conditions: for pest or weed control at 31 g/ha / pest or weed control at 62 g/ha / pest or weed control at 125 g/ha: Avena fatua, post-emergence; for pest or weed control at 31 g/ha: read-out: Oat, Wild plant response rating; for pest or weed control at 62 g/ha / pest or weed control at 125 g/ha: read-out: Plant response rating, Oat, Wild
Outline: as §1

kochia (Kochia scoparia) = experiment: Test D postemergence plant response; conditions: for Kochia plant response rating / pest or weed control at 31 g/ha: scale 0 to 100 (0 no effect, 100 complete control); for Plant response rating, Kochia / pest or weed control at 62 g/ha / pest or weed control at 125 g/ha: scale 0 to 100, 0 no effect, 100 complete control; for pest or weed control at 31 g/ha / pest or weed control at 62 g/ha / pest or weed control at 125 g/ha: Bassia scoparia, post-emergence; for pest or weed control at 31 g/ha: read-out: Kochia plant response rating; for pest or weed control at 62 g/ha / pest or weed control at 125 g/ha: read-out: Plant response rating, Kochia
Outline: as §1

[2] = test system: waterhemp_RES1 (ALS & Triazine resistant common waterhemp, Amaranthus rudis); experiment: Test F postemergence plant response; conditions: scale 0 to 100
Procedure: (§2) At the same time, plants from these crop and weed species and also waterhemp_RES1, (ALS & Triazine resistant common waterhemp, Amaranthus rudis), and waterhemp_RES2, (ALS & HPPD resistant common waterhemp, Amaranthus rudis) were treated with postemergence applications of test chemicals formulated in the same manner. Plants ranged in height from 2 to 18 cm for postemergence treatments (1- to 4-leaf stage).
(§3) Treated plants and controls were maintained in a greenhouse for 14 to 21 days, after which time all species were compared to controls and visually evaluated. Plant response ratings, summarized in Table F, are based on a scale of 0 to 100 where 0 is no effect and 100 is complete control. A dash (-) response means no test result.

[3] = test system: waterhemp_RES2 (ALS & HPPD resistant common waterhemp, Amaranthus rudis); experiment: Test F postemergence plant response; conditions: scale 0 to 100
Procedure: as §2, §3

[4] = test system: blackgrass (Alopecurus myosuroides); experiment: Test B postemergence plant response
Outline: (§4)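 Plants grown in pots of loam soil–sand blend were sprayed postemergence with formulated test chemicals at 2 to 10 cm height, one- to two-leaf stage. After about 10 days in a greenhouse, injury was visually rated against untreated controls on a 0 to 100 scale (0 no effect, 100 complete control).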

[5] = test system: galium (catchweed bedstraw, Galium aparine); experiment: Test B postemergence plant response
Outline: as §4

[6] = 31 g ai/ha, scale 0 to 100 (0 no effect, 100 complete control)
[7] = 62 g ai/ha, scale 0 to 100, 0 no effect, 100 complete control
[8] = 125 g ai/ha, scale 0 to 100, 0 no effect, 100 complete control
[9] = 31 g ai/ha, Postemergence, 0 to 100 scale, 0 no effect, 100 complete control
[10] = 125 g ai/ha, postemergence, 0 to 100 scale, 0 no effect, 100 complete control
[11] = Postemergence, 31 g ai/ha, 0 to 100 scale (0 no effect, 100 complete control)
[12] = Postemergence, 500 g ai/ha, 0 to 100 scale (0 no effect, 100 complete control)

Compound | Chickweed plant response rating ([1]; 31 g ai/ha) | Plant response rating, Chickweed ([1]; 62 g ai/ha) | Plant response rating, Chickweed ([1]; 125 g ai/ha) | Oat, Wild plant response rating (wild oat (Avena fatua); [6]) | Plant response rating, Oat, Wild (wild oat (Avena fatua); [8]) | Kochia plant response rating (kochia (Kochia scoparia); 31 g ai/ha) | Plant response rating, Kochia (kochia (Kochia scoparia); 62 g ai/ha) | Plant response rating, Kochia (kochia (Kochia scoparia); 125 g ai/ha) | Plant response rating, Waterhemp_RES1 ([2]; 16 g ai/ha Postemergence) | Plant response rating, Waterhemp_RES1 ([2]; 31 g ai/ha Postemergence) | Plant response rating, Waterhemp_RES1 ([2]; 62 g ai/ha Postemergence) | Plant response rating, Waterhemp_RES1 ([2]; 125 g ai/ha Postemergence) | Plant response rating, Waterhemp_RES2 ([3]; 16 g ai/ha Postemergence) | Plant response rating, Waterhemp_RES2 ([3]; 31 g ai/ha Postemergence) | Plant response rating, Waterhemp_RES2 ([3]; 62 g ai/ha Postemergence) | Plant response rating, Waterhemp_RES2 ([3]; 125 g ai/ha Postemergence) | Plant response rating, Blackgrass [4, 10] | Plant response rating, Galium [5, 10] | Plant response rating, Blackgrass [4, 11] | Plant response rating, Galium [5, 11] | other results
Fc1ccc(Oc2ncc(Cl)cn2)c(-c2cc(C(F)F)on2)c1Cl [Compound 96] | 85 | 90 | 98 | 20 | 20 | 60 | 85 | 100 | 85 | 90 | 95 | 95 | 85 | 90 | 90 | 95 | 70 | 100 |  |  | Chickweed plant response rating ([1]; 16 g ai/ha): 60; Oat, Wild plant response rating (wild oat (Avena fatua); 16 g ai/ha, scale 0 to 100 (0 no effect, 100 complete control)): 15; Plant response rating, Oat, Wild (wild oat (Avena fatua); [7]): 20; Kochia plant response rating (kochia (Kochia scoparia); 16 g ai/ha): 25; Plant response rating, Blackgrass [4, 9]: 10; Plant response rating, Galium [5, 9]: 100
Fc1cccc(Oc2ncc(Cl)cn2)c1-c1cc(C(F)F)no1 [Compound 144, 5-chloro-2-[2-[3-(difluoromethyl)-5-isoxazolyl]-3-fluorophenoxy]pyrimidine] |  |  |  |  |  |  |  |  | 90 | 95 | 100 | 100 | 98 | 100 | 100 | 100 | 90 | 100 | 80 | 100 | pest or weed control at 16 g/ha ([1]; 16 g ai/ha): 70%; pest or weed control at 31 g/ha ([1]; 31 g ai/ha): 80%; pest or weed control at 62 g/ha ([1]; 62 g ai/ha): 95%; pest or weed control at 125 g/ha ([1]; 125 g ai/ha): 95%; pest or weed control at 31 g/ha (wild oat (Avena fatua); [6]): 0%; pest or weed control at 62 g/ha (wild oat (Avena fatua); [7]): 5%; pest or weed control at 125 g/ha (wild oat (Avena fatua); [8]): 10%; pest or weed control at 31 g/ha (kochia (Kochia scoparia); 31 g ai/ha): 100%; pest or weed control at 62 g/ha (kochia (Kochia scoparia); 62 g ai/ha): 100%; pest or weed control at 125 g/ha (kochia (Kochia scoparia); 125 g ai/ha): 100%
Fc1cccc(Oc2ncc(Br)cn2)c1-c1cc(C(F)F)no1 [Compound 145, 5-bromo-2-[2-[3-(difluoromethyl)-5-isoxazolyl]-3-fluorophenoxy]pyrimidine] |  |  |  |  |  |  |  |  | 95 | 98 | 100 | 100 | 95 | 90 | 100 | 100 | 90 | 100 | 70 | 100 | pest or weed control at 16 g/ha ([1]; 16 g ai/ha): 70%; pest or weed control at 31 g/ha ([1]; 31 g ai/ha): 80%; pest or weed control at 62 g/ha ([1]; 62 g ai/ha): 95%; pest or weed control at 125 g/ha ([1]; 125 g ai/ha): 100%; pest or weed control at 31 g/ha (wild oat (Avena fatua); [6]): 10%; pest or weed control at 62 g/ha (wild oat (Avena fatua); [7]): 15%; pest or weed control at 125 g/ha (wild oat (Avena fatua); [8]): 15%; pest or weed control at 31 g/ha (kochia (Kochia scoparia); 31 g ai/ha): 100%; pest or weed control at 62 g/ha (kochia (Kochia scoparia); 62 g ai/ha): 100%; pest or weed control at 125 g/ha (kochia (Kochia scoparia); 125 g ai/ha): 100%
CC(F)(F)c1cc(-c2ccccc2Oc2ncc(Br)cn2)no1 [Compound 149] | 30 | 30 | 60 | 0 | 5 | 90 | 100 | 100 | 80 | 85 | 90 | 100 | 95 | 95 | 100 | 100 | 60 | 90 | 10 | 90 | Chickweed plant response rating ([1]; 16 g ai/ha): 5; Plant response rating, Oat, Wild (wild oat (Avena fatua); [7]): 0
FC(F)c1cc(-c2c(Cl)cccc2Oc2ncc(Cl)cn2)no1 [Compound 179] | 80 | 95 | 95 | 5 | 20 | 100 | 100 | 100 | 90 | 90 | 100 | 100 | 95 | 100 | 100 | 100 | 80 | 100 |  |  | Plant response rating (scale 0 to 100), Chickweed ([1]; 16 g ai/ha): 70; Plant response rating (scale 0 to 100), Oat, Wild (wild oat (Avena fatua); 16 g ai/ha): 0; Oat, Wild plant response rating (wild oat (Avena fatua); [7]): 15; Plant response rating (scale 0 to 100), Kochia (kochia (Kochia scoparia); 16 g ai/ha): 90; Plant response rating, Blackgrass [4, 12]: 100; Plant response rating, Galium [5, 12]: 100
FC(F)c1cc(-c2ccccc2Oc2ncc(Br)cn2)on1 [Compound 212] | 30 | 30 | 80 | 0 | 10 | 100 | 100 | 100 | 70 | 80 | 95 | 98 | 70 | 95 | 98 | 100 | 50 | 100 | 10 | 60 | Plant response rating (scale 0 to 100), Chickweed ([1]; 16 g ai/ha): 10; Plant response rating (scale 0 to 100), Oat, Wild (wild oat (Avena fatua); 16 g ai/ha): 0; Oat, Wild plant response rating (wild oat (Avena fatua); [7]): 5; Plant response rating (scale 0 to 100), Kochia (kochia (Kochia scoparia); 16 g ai/ha): 90
Fc1ccc(Oc2ncc(Cl)cn2)c(-c2cc(C(F)(Cl)Cl)on2)c1 [Compound 221] | 85 | 80 | 100 | 10 | 35 | 100 | 100 | 100 | 85 | 95 | 100 | 98 | 90 | 98 | 95 | 100 | 60 | 100 | 30 | 90 | Plant response rating (scale 0 to 100), Chickweed ([1]; 16 g ai/ha): 75; Plant response rating (scale 0 to 100), Oat, Wild (wild oat (Avena fatua); 16 g ai/ha): 5; Oat, Wild plant response rating (wild oat (Avena fatua); [7]): 10; Plant response rating (scale 0 to 100), Kochia (kochia (Kochia scoparia); 16 g ai/ha): 98
